target: BTK (Homo sapiens, UniProt Q06187); test: biochemical; conditions: read-out: BTK inhibition (%)
Sequence (Q06187 402-655 limits assumed): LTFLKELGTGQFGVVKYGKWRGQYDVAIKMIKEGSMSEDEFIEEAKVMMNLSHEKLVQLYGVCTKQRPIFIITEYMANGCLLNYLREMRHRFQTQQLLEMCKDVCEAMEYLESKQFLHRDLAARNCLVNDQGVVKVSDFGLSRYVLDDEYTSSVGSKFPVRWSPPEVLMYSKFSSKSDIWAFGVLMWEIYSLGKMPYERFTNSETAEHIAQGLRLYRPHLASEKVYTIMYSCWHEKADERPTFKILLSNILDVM

| SMILES | inhibition at 10 µM [%] |
| --- | --- |
| ClCCN(Cc1ccccc1)Cc1ccccc1 [PCM-0216162] | -20.1 |
| O=P(O)(O)Oc1cccc2ccccc12 [PCM-0216167] | -4.6 |

same assay, conditions: read-out: BTK inhibition (%), 0.75 uM BTK, […] probe 3l, 15 min preincubation

| SMILES | inhibition at 10 µM [%] |
| --- | --- |
| O=c1cc(-c2ccccc2)oc2c1ccc1ccccc12 [PCM-0216134] | -0.8 |
| CC1=C[C@H]2[C@@H](CC1)[C@H](C)CC[C@H]2[C@@H](C)C(=O)O [PCM-0216135] | -3.1 |
| CC(COc1ccccc1Cc1ccccc1)N1CCCCC1 (centres unmarked) [PCM-0216136] | -17 |
| CN(CCN1CCC(OC(=O)Nc2ccccc2-c2ccccc2)CC1)C(=O)c1ccc(CN2CCC(C(N)=O)CC2)cc1 [PCM-0216137] | -10 |
| CC(C)(C)C(O)/C=C/c1ccc2c(c1)OCO2 (centres unmarked) [PCM-0216138] | -4.6 |
| Cc1ccccc1N1CCN(CCc2nnc3n2CCCC3)CC1 [PCM-0216139] | 3.9 |
| O=C1N=C(N2CCOCC2)CN1c1ccc(Cl)cc1 [PCM-0216140] | -1.5 |
| COCC1=C(C(=O)OC(C)OC(=O)OC(C)C)N2C(=O)[C@@H](NC(=O)/C(=N\OC)c3csc(N)n3)[C@H]2SC1 (some centres unmarked) [PCM-0216141] | -11.6 |
| Clc1ccc2c(N3CCN(CCCN4CCN(c5ccnc6cc(Cl)ccc56)CC4)CC3)ccnc2c1 [PCM-0216142] | -5.1 |
| O=C(O)CCCNC(=O)c1cccnc1 [PCM-0216143] | -17 |
| CCN(CC)c1ccc(/C=N/NC(=O)c2ccc(O)cc2)cc1 [PCM-0216144] | 0 |
| CCCCCCCC/C=C\CCCCCCCC(=O)OCC [PCM-0216145] | 6.9 |
| Nc1ccn([C@@H]2O[C@H](COP(=O)(O)O)[C@@H](O)[C@H]2O)c(=O)n1 [PCM-0216146] | -0.9 |
| CCCCCCC1CCC(=O)O1 (centres unmarked) [PCM-0216147] | 0 |
| CCCCCCCCCC=O [PCM-0216148] | -10 |
| CC12CCC(C1)C(C)(C)C2O (centres unmarked) [PCM-0216150] | -13.9 |
| CCCCCCCCCCCCCCCCCCCCCC(=O)O [PCM-0216151] | 23.2 |
| O=CO [PCM-0216152] | -12.4 |
| CCCCCCCC/C=C\CCCCCCCCCCCC(=O)O [PCM-0216153] | -64.9 |
| CC(C)CCCC(C)CCCC(C)CCCCC(C)CCCC(C)CCCC(C)C (centres unmarked) [PCM-0216154] | 8.5 |
| C=CC(=C)C [PCM-0216155] | 1.5 |
| CC(C)C12CCC(C)(CC1)O2 [PCM-0216156] | 23.9 |

| SMILES | inhibition at 10 µM [%] |
| --- | --- |
| CCCCCCCCCCCCCCCCCC[N+](C)(C)C [PCM-0216157] | -27 |
| Nc1ccc(Cl)cc1C(=O)C(F)(F)F [PCM-0216158] | 23.2 |
| O=C(O)C(=O)CBr [PCM-0216160] | 6.2 |
| NC(N)=NCCCC[C@H](N)C(=O)O [PCM-0216161] | -8.5 |
| Cc1cc(C(=O)O)n[nH]1 [PCM-0216163] | -0.8 |
| O=S(=O)(Cl)c1ccc(-c2ccccc2)cc1 [PCM-0216165] | -8.5 |
| Brc1ccc2[nH]ccc2c1 [PCM-0216166] | -11.6 |
| O=C(O)c1ccc(Br)c(O)c1 [PCM-0216168] | -23.9 |
| O=C(Nc1ccc2c(O)cc(S(=O)(=O)O)cc2c1)Nc1ccc2c(O)cc(S(=O)(=O)O)cc2c1 [PCM-0216169] | 29.3 |
| C[C@H]1O[C@@H](O[C@H]2CC[C@@]3(C)[C@@H](CC[C@]4(C)[C@@H]3C=C[C@]35OC[C@@]6(CCC(C)(C)C[C@H]63)[C@H](O)C[C@]54C)[C@]2(C)CO)[C@H](O)[C@@H](O[C@@H]2O[C@H](CO)[C@@H](O)[C@H](O)[C@H]2O)[C@H]1O [PCM-0216171] | 5.4 |
| CC1(C)CC[C@]2(C(=O)O[C@@H]3O[C@H](CO[C@@H]4O[C@H](CO)[C@@H](O)[C@H](O)[C@H]4O)[C@@H](O)[C@H](O)[C@H]3O)CC[C@]3(C)C(=CC[C@@H]4[C@@]5(C)CC[C@H](O[C@@H]6OC[C@H](O)[C@H](O)[C@H]6O)[C@@](C)(CO)[C@@H]5CC[C@]43C)[C@@H]2C1 [PCM-0216172] | 13.9 |
| COc1cccc(OC)c1C(=O)OCc1cc(O)ccc1O[C@@H]1O[C@H](CO)[C@@H](O)[C@H](O)[C@H]1O [PCM-0216173] | 0 |
| C[C@@H]1O[C@@H](O[C@@H]2[C@@H](O)[C@H](OCCc3ccc(O)c(O)c3)O[C@H](CO)[C@H]2OC(=O)/C=C/c2ccc(O)c(O)c2)[C@H](O)[C@H](O)[C@H]1O [PCM-0216174] | 15.9 |
| CC(=O)O[C@@H]1C[C@@]23C[C@@]24CC[C@H](O[C@@H]2OC[C@@H](O)[C@H](O)[C@H]2O)C(C)(C)[C@@H]4CC=C3[C@]2(C)C[C@@H]3OC4(C[C@@H](C)[C@@H]3[C@@]12C)OC(O)C1(C)OC41 (some centres unmarked) [PCM-0216175] | -6.2 |
| CC(C)=CCc1cc2c(cc1O)oc(=O)c1c3ccc(O)cc3oc21 [PCM-0216176] | 17.2 |
| COC(=O)C1=CO[C@@H](O[C@@H]2O[C@H](CO)[C@@H](O)[C@H](O)[C@H]2O)[C@@H]2[C@H](C)O[C@@H](O)C[C@H]12 [PCM-0216177] | -19.3 |
| C[C@@H]1O[C@@H](O[C@H]2[C@H](Oc3c(-c4ccc(O)cc4)oc4cc(O)cc(O)c4c3=O)O[C@H](CO)[C@@H](O)[C@@H]2O)[C@H](O)[C@H](O)[C@H]1O [PCM-0216179] | -1.7 |
| CC(=O)O[C@H]1C[C@H](O[C@H]2[C@@H](O)C[C@H](O[C@H]3[C@@H](O)C[C@H](O[C@H]4CC[C@@]5(C)[C@H](CC[C@@H]6[C@@H]5C[C@@H](O)[C@]5(C)[C@@H](C7=CC(=O)OC7)CC[C@]65O)C4)O[C@@H]3C)O[C@@H]2C)O[C@H](C)[C@H]1O[C@@H]1O[C@H](CO)[C@@H](O)[C@H](O)[C@H]1O [PCM-0216197] | -4.6 |
| O=Cc1ccccc1 [PCM-0216202] | -2.3 |
| O=c1[nH]c2ccccc2o1 [PCM-0216203] | 5.4 |
| CO[C@H]1C[C@H](O[C@@H]2/C(C)=C/C[C@@H]3C[C@@H](C[C@]4(CC[C@H](C)[C@@H](C5CCCCC5)O4)O3)OC(=O)[C@@H]3C=C(C)/C(=N/O)[C@H]4OC/C(=C\C=C\[C@@H]2C)[C@]43O)O[C@@H](C)[C@@H]1O [PCM-0216231] | 41.7 |

Now from value to molecule:

| inhibition at 10 µM [%] | SMILES |
| --- | --- |
| 54.1 | CC(C)=CCc1cc2c(cc1O)O[C@H](c1ccc(O)cc1)CC2=O [PCM-0216180] |
| -6.9 | O=C(O)C1=CO[C@@H](O[C@@H]2O[C@H](CO)[C@@H](O)[C@H](O)[C@H]2O)[C@H]2[C@@H]1C=C[C@]2(O)CO [PCM-0216181] |
| -13.9 | COc1cc(C=O)c([N+](=O)[O-])cc1OC [PCM-0216182] |
| -14.7 | CCOC(=O)C=P(c1ccccc1)(c1ccccc1)c1ccccc1 [PCM-0216183] |
| 13.6 | O=C[C@H](O)[C@@H](O)[C@H](O)[C@H](O)COP(=O)(O)O [PCM-0216185] |
| 10 | Cc1ccc(C(=O)O)c(O)c1 [PCM-0216186] |
| 3.1 | CC(=O)c1ccccc1 [PCM-0216190] |
| -21.4 | Cc1ncc([N+](=O)[O-])n1C [PCM-0216192] |
| 4.6 | OC1OC[C@@H](O)[C@@H](O)[C@H]1O (some centres unmarked) [PCM-0216193] |
| 1.7 | NC(CO)C(=O)O (centres unmarked) [PCM-0216194] |
| -8.3 | CCCCCCCC(=O)CCc1ccc(O)c(OC)c1 [PCM-0216195] |
| 2.3 | Cc1cccc(C)c1N(CC(=O)Nc1ccc(-c2ncon2)cc1)C(=O)C1CCS(=O)(=O)CC1 [PCM-0216196] |
| -14.7 | COc1ccccc1 [PCM-0216198] |
| 9.3 | CCCCCCCCCCCCCCCCCCCC(=O)O [PCM-0216199] |
| 13.6 | NC(=O)C[C@H](N)C(=O)O [PCM-0216200] |
| 10.8 | CC(=O)OCc1ccccc1 [PCM-0216204] |
| 14.7 | NCCCCCN [PCM-0216205] |
| -6.2 | O=C(O)c1cc(=O)cc(C(=O)O)o1 [PCM-0216206] |
| -14.7 | CC(=O)OC/C=C/c1ccccc1 [PCM-0216207] |
| -7.7 | CC(C)=CCCC(C)CCO (centres unmarked) [PCM-0216208] |
| 4.6 | CC(C)=CCCC(C)CC=O (centres unmarked) [PCM-0216209] |

| inhibition at 10 µM [%] | SMILES |
| --- | --- |
| -3.1 | O=C(O)/C=C/c1cccc(O)c1 [PCM-0216210] |
| 6.2 | c1ccc2occc2c1 [PCM-0216211] |
| -30.6 | CN(CC(=O)O)C(=N)N [PCM-0216212] |
| 18.5 | C=C1C2CCC(C2)C1(C)C (centres unmarked) [PCM-0216213] |
| -20.8 | CC1=CC[C@@H](C(C)(C)O)CC1 [PCM-0216214] |
| 8.5 | CC1=CCC2C(C1)C2(C)C (centres unmarked) [PCM-0216215] |
| 13.1 | CC(=O)O[C@@H]1C[C@H](C)CC[C@H]1C(C)C [PCM-0216217] |
| -20.1 | Cc1ccc(C(C)C)cc1 [PCM-0216218] |
| 4.6 | C=C1[C@H]2CC[C@@H]3[C@H]2C(C)(C)CCC[C@]13C [PCM-0216219] |
| 20.8 | O=C(O)CNC(=O)c1ccccc1 [PCM-0216220] |
| -24.7 | O=C(O)[C@@H]1CCCN1 [PCM-0216221] |
| -4.3 | C[C@H](N)C(=O)O [PCM-0216222] |
| -0.9 | CSCC[C@H](N)C(=O)O [PCM-0216223] |
| -23.9 | COC(=O)c1ccco1 [PCM-0216224] |
| 47.9 | Cc1nc(Nc2ncc(C(=O)Nc3cc(NC(=O)c4cccc(C(F)(F)F)c4)ccc3C)s2)cc(N2CCN(CCO)CC2)n1 [PCM-0216225] |
| -7 | COc1cc(CCC(=O)CC(=O)CCc2ccc(O)c(OC)c2)ccc1O [PCM-0216226] |
| 7.8 | O=c1ccc2ccc(O)cc2[nH]1 [PCM-0216227] |
| 20.7 | CSCC1CN(/N=C/c2ccc([N+](=O)[O-])o2)C(=O)O1 (centres unmarked) [PCM-0216228] |
| -7.8 | NN1CC(=O)NC1=O [PCM-0216229] |
| 17.8 | OC[C@H]1O[C@H](OC[C@H]2O[C@H](OC[C@H]3O[C@H](O[C@]4(CO)O[C@H](CO)[C@@H](O)[C@@H]4O)[C@H](O)[C@@H](O)[C@@H]3O)[C@H](O)[C@@H](O)[C@H]2O)[C@H](O)[C@@H](O)[C@H]1O [PCM-0216230] |

— paper PMC8041284, “Tunable Methacrylamides for Covalent Ligand Directed Release Chemistry” (Journal of the American Chemical Society, 2021)
